In patent US10670605B2, “Cysteine reactive probes and uses thereof” (The Scripps Research Institute, priority 2015, dated 2020):
One block for each compound: values may come before it.

Columns and labels:
Test in all cases: Competitive isoTOP-ABPP in situ (fragment-treated cells)
Type in all cases: cell-based
[1] = molecular target: cysteines in MDA-MB-231 and Ramos cells (Homo sapiens, UniProt Q9ULA0); conditions: 200 μM, insitu
[2] = molecular target: T1, cysteines in MDA-MB-231 and Ramos cells (Homo sapiens, UniProt O94953); conditions: 200 μM, insitu, ramos
T1 sequence (O94953 1-1096): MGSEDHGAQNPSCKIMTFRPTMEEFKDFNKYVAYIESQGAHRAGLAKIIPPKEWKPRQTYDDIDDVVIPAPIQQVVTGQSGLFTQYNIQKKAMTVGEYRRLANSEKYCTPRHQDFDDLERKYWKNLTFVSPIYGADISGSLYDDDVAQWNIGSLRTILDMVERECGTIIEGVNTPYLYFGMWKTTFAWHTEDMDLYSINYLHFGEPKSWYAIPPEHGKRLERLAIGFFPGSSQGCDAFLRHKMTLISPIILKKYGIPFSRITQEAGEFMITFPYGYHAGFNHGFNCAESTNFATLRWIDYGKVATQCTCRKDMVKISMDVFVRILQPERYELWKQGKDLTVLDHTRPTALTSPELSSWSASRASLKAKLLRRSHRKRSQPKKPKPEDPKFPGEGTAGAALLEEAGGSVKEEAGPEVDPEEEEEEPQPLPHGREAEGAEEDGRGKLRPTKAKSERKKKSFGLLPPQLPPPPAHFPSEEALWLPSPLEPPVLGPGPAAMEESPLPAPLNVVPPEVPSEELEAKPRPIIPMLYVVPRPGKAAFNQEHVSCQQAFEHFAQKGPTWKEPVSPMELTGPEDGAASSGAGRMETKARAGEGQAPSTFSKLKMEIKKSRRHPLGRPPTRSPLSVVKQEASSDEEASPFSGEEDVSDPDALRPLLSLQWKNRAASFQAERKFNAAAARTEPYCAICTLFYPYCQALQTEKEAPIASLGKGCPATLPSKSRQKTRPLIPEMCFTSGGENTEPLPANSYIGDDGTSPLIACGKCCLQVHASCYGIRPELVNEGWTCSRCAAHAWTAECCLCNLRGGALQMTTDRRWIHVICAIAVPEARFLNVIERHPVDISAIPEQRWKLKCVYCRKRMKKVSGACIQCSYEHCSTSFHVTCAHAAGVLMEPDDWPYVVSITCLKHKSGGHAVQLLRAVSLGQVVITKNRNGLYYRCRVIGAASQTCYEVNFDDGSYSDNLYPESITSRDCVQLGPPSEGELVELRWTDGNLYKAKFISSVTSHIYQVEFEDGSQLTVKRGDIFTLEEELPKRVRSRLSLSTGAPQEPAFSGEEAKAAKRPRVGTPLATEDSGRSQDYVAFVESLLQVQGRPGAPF

[3] = molecular target: T2, cysteines in MDA-MB-231 and Ramos cells (Homo sapiens, UniProt P10398); conditions: 200 μM, insitu
T2 sequence (P10398 1-606): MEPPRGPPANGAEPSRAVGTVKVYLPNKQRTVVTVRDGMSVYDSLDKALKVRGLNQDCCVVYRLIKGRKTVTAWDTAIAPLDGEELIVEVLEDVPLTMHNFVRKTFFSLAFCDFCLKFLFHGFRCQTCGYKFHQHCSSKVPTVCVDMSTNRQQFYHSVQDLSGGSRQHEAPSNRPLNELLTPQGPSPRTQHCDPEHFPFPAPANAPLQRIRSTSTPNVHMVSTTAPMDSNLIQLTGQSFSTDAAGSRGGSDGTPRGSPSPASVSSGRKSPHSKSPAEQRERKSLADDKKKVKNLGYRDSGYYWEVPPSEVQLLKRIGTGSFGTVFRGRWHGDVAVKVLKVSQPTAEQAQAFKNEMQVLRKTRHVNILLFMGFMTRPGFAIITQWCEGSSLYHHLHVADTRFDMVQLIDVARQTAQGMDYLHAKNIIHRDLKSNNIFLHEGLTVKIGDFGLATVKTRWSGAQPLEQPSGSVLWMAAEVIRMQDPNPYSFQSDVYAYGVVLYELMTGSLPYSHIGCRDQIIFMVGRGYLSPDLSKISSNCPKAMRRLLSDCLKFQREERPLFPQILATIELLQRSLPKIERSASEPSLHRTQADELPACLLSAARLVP

[4] = molecular target: T3, cysteines in MDA-MB-231 and Ramos cells (Homo sapiens, UniProt Q9C0I1); conditions: 200 μM, insitu
T3 sequence (Q9C0I1 1-747): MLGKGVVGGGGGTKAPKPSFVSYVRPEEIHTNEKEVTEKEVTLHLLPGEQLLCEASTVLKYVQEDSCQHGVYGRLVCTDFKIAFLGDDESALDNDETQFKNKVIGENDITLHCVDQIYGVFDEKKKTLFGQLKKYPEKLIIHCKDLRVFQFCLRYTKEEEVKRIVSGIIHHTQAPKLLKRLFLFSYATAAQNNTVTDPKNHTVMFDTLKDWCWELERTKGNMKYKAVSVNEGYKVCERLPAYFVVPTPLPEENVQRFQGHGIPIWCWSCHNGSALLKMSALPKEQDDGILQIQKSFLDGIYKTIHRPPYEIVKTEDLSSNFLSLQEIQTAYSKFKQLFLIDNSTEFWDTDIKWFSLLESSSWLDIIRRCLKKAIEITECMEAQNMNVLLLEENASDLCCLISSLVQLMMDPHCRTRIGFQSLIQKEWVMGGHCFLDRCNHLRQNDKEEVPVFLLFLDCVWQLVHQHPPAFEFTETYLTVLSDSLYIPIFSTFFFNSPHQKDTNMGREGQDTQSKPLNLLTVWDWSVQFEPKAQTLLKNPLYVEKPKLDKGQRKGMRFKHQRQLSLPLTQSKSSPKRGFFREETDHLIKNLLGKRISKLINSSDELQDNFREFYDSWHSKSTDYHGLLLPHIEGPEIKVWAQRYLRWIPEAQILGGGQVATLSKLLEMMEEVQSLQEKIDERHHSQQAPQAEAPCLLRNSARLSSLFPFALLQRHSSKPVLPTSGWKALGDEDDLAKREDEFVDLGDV

Structure (SMILES): O=C(CCl)N1CCC(Cc2ccccc2)CC1 [compound 9]
isoTOP-ABPP reactivity Q9ULA0_C144 DNPEP [1]; 231: 2.1

Structure (SMILES): O=C(CCl)N1CCN(S(=O)(=O)c2ccccc2F)CC1 [compound 10]
isoTOP-ABPP ratio, cysteine O94953_C694 [2]: 3.9 | isoTOP-ABPP ratio, cysteine P10398_C597 [3]; 231: 1.4 | isoTOP-ABPP ratio, cysteine Q9ULA0_C144 [1]; 231: 5.2

Structure (SMILES): O=C(CCl)NC(=O)NC12CC3CC(CC(C3)C1)C2 [compound 12]
isoTOP-ABPP ratio, cysteine Q9C0I1_C152 [4]; 231: 20.0

Structure (SMILES): O=C(CCl)NCCc1c[nH]c2ccccc12 [compound 13]
isoTOP-ABPP ratio, cysteine O94953_C694 [2]: 1.5 | isoTOP-ABPP ratio, cysteine P10398_C597 ([3]; ramos): 1.0 | isoTOP-ABPP ratio, cysteine Q9C0I1_C152 ([4]; ramos): 6.5

The next lines start with the values.

isoTOP-ABPP ratio, cysteine P10398_C597 [3]; 231: 0.7 | isoTOP-ABPP ratio, cysteine Q9C0I1_C152 [4]; 231: 0.7
Structure (SMILES): O=C(CCl)NC12CC3CC(CC(C3)C1)C2 [compound 21]

isoTOP-ABPP ratio, O94953_C694 [2]: 1.1 | isoTOP-ABPP ratio P10398_C597 ([3]; ramos): 1.2 | isoTOP-ABPP ratio Q9ULA0_C144 ([1]; ramos): 1.3 | isoTOP-ABPP ratio Q9C0I1_C152 ([4]; ramos): 4.6
Structure (SMILES): O=C(CCl)N1CCN(CC(=O)N2CCOCC2)CC1 [compound 29]

isoTOP-ABPP ratio Q9ULA0_C144 [1]; 231: 0.8
Structure (SMILES): Cc1ccc(C=C(C#N)C(=O)NCCN2CCOCC2)cc1 [compound 41]
